Experimental findings from patent US5112846A, “N-hydroxyamide, N-hydroxythioamide, hydroxyurea, and N-hydroxythiourea derivatives of selected nsaids as antiinflammatory agents” (Warner-Lambert Company, priority 1990, dated 1992) are described below.

One assay deals with T1, 5-Lipoxygenase (Rattus norvegicus, UniProt P12527).
T1 construct: host or cells: RBL-1 rat basophilic leukemia cells
T1 sequence (P12527 1-673): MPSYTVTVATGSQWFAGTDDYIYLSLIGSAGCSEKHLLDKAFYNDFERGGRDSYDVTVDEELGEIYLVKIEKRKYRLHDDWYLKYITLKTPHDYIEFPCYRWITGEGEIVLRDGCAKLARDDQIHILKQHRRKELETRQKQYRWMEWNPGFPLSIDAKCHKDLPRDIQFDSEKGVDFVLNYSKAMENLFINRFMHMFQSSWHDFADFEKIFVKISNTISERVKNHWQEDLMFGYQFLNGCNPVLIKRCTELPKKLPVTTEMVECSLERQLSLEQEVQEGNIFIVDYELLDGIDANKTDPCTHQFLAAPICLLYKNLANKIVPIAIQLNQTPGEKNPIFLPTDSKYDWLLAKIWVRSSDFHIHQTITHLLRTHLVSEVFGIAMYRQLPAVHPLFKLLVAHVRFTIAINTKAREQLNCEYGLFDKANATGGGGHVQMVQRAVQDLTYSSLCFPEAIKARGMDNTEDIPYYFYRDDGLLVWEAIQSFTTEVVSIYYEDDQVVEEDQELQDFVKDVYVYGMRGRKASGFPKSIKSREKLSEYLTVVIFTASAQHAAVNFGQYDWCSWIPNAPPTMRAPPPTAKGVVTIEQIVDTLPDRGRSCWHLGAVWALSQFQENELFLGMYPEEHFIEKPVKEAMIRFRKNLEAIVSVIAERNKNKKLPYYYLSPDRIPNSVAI
Description: ARBL whole cell 5-lipoxygenase assay (LTB4 formation in RBL-1 cells, A23187 stimulated). It is filed as cell-based. To be noted: for IC50: read-out: ARBL IC50 (inhibition of LTB4 formation). How it is done: (§1) ARBL/ARBC Whole Cell 5-Lipoxygenase and Cyclooxygenase Assays
(§2) The rat basophilic leukemia cell line (RBL-1) was obtained from the American Type Culture Collection (Rockville, MD).
(§3) Radioimmunoassay (RIA) kits of LTB4 and PGF2α were obtained from Amersham (Arlington Heights, IL) and Seragen (Boston, MA), respectively.
(§4) RBL-1 cells are grown in suspension culture in Eagle's minimum essential medium supplemented with 12% fetal bovine serum at 37° C. in an incubator supplied with air-5% carbon dioxide. Cells are harvested by centrifugation. They are washed with cold phosphate buffered saline pH 7.4 (PBS; NaCl, 7.1 g; Na2 HPO4, 1.15 g; KH2 PO4, 0.2 g; and KCl, 0.2 g/l). Cells are finally suspended in PBS containing 1.0 mM calcium at a density of 2×10^6 cells/ml. Cells are incubated with and without test agent (in DMSO) (1% DMSO is without effect on arachidonic acid metabolism) for ten minutes at room temperature. Calcium ionophore A23187 (5 μM) is added and cells are incubated for seven minutes at 37° C. The reaction is stopped by chilling the tubes on ice for ten minutes. Cells are separated by centrifugation and the supernatant is stored at -20° C. Aliquots (100 μl) are analyzed for LTB4 and PGF2α using radioimmunoassay kits as provided by the supplier.
(§5) Tables 1-4 contain biochemical data obtained from this whole cell assay either as IC50 s which are calculated as the amount of test compound causing 50% inhibition of LTB4 or PGF2α formation or % inhibition of LTB4 or PGF2α at the indicated amount expressed as μM.

Another assay has as its target T2, Cyclooxygenase (Rattus norvegicus, UniProt Q63921).
T2 construct: host or cells: RBL-1 rat basophilic leukemia cells
T2 sequence (Q63921 27-602): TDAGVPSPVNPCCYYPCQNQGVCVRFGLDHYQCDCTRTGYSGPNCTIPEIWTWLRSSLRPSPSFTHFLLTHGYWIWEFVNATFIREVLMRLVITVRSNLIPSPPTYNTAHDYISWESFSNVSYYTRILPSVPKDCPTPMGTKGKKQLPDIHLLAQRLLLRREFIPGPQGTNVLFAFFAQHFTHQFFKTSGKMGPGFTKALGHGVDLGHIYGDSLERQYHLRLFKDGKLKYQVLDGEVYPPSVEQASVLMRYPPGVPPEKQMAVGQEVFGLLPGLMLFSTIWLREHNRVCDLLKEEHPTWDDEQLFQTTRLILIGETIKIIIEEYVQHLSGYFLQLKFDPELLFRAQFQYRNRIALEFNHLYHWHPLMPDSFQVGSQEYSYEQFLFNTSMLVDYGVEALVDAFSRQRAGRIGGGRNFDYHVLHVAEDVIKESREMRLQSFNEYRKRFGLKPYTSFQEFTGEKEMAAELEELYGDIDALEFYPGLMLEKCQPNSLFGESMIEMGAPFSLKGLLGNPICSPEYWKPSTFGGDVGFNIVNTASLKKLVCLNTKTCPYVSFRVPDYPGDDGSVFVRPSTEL
Description: ARBC whole cell cyclooxygenase assay (PGF2α formation in RBL-1 cells, A23187 stimulated). It is filed as cell-based. To be noted: for inhibition at 32 µM: Table 3, read-out: ARBC % inhibition (N @ 32); for IC50: read-out: ARBC IC50 (inhibition of PGF2α formation). The method, then: as §1, §2, §3, §4, §5

The mark [1] stands for this setting: RBL-1, Table 1, read-out: ARBC % inhibition (N).
Where [2] appears, read: RBL-1 cells, read-out: ARBL % inhibition of LTB4.
The mark [3] stands for this setting: RBL-1 cells, read-out: ARBC % inhibition of PGF2α.

Read-outs that look alike come from different tables or passages of the source. A value given as a limit tells only on which side of the number the result lay.

As a reminder, the IC50 is the concentration that inhibits the measured activity by half. One may read the inhibition as the drop in the measured response relative to a control, in per cent.

Regarding `CC(=O)N(O)Cc1ccc2c(c1)OCc1ccccc1C2=O` [Example 18, N-[(6,11-Dihydro-11-oxodibenz[b,el]oxepin-3-yl)methyl]-N-hydroxyacetamide], the IC50 on 5-Lipoxygenase (RBL-1 cells) was found to be 840 nM. For the same compound, the inhibition at 16 µM at Cyclooxygenase (RBL-1, Table 2, read-out: ARBC % inhibition (N)) was less than 40%.
As to `CC(=O)N(O)C(C)c1ccc2c(c1)Cc1ccccc1-2` (stereo not drawn) [Example 11, N-(1-(9H-Fluoren-2-yl)ethyl)-N-hydroxy-acetamide], the IC50 at 5-Lipoxygenase (RBL-1 cells) came out at 760 nM. Besides, the inhibition at 16 µM on Cyclooxygenase (setting [1]) was less than 40%.
In the case of `CC(C)C(=O)N(O)C(C)c1ccc2c(c1)Cc1ccccc1-2` (stereo not drawn) [Example 13], the inhibition at 16 µM at 5-Lipoxygenase (setting [2]) was 90%; on Cyclooxygenase (setting [1]), less than 40%.
For the compound `CC(=O)N(O)C(C)c1ccccc1Nc1c(Cl)ccc(C)c1Cl` (stereo not drawn) [Example 53, N-[1-[2-[(2,6-dichloro-3-methylphenyl)amino]phenyl]ethyl]-N-hydroxyacetamide], on 5-Lipoxygenase (RBL-1 cells), the 50% inhibitory concentration (IC50) was found to be 1800 nM. At Cyclooxygenase (RBL-1), the inhibition at 32 µM was less than 40%.
Consider `CCOC(=O)CC(=O)N(O)Cc1c(C)n(C(=O)c2ccc(Cl)cc2)c2ccc(OC)cc12` [Example 64, 3-[[[1-(4-Chlorobenzoyl)-5-methoxy-2-methyl-1H-indol-3-yl]methyl]hydroxyamino]-3-oxo-propanoic acid, ethyl ester], for which the half-inhibitory concentration (IC50) at 5-Lipoxygenase (RBL-1 cells) worked out at 1100 nM; at Cyclooxygenase (RBL-1 cells), 14000 nM.
For the compound `CCOC(=O)NC(=O)N(O)Cc1c(C)n(C(=O)c2ccc(Cl)cc2)c2ccc(OC)cc12` [Example 72, [[[[1-(4-Chlorobenzoyl)-5-methoxy-2-methyl-1H-indol-3-yl]methyl]hydroxyamino]carbonyl]carbamic acid, ethyl ester], the inhibition at 16 µM on 5-Lipoxygenase (setting [2]) was 98%.
As for `CC(=O)N(O)Cc1ccccc1Nc1c(Cl)ccc(C)c1Cl` [Example 54, N-[[2-[(2,6-Dichloro-3-methylphenyl)amino]phenyl]methyl]-N-hydroxyacetamide], the 50% inhibitory concentration (IC50) was found to be 180 nM at 5-Lipoxygenase (RBL-1 cells) and 5000 nM on Cyclooxygenase (RBL-1 cells).
For `COc1ccc2c(c1)c(CN(O)C(=O)N(C)C)c(C)n2C(=O)c1ccc(Cl)cc1` [Example 70, 1-(4-Chlorobenzoyl)-N-[(dimethylamino)carbonyl]-N-hydroxy-5-methoxy-2-methyl-1H-indole-3-methanamine], the figures for the inhibition at 16 µM at 5-Lipoxygenase (setting [2]) and at Cyclooxygenase (setting [3]) were 100% and 73%, respectively.
On to `COc1ccc2c(c1)c(CN(O)C(C)=O)c(C)n2C(=O)c1ccc(Cl)cc1` [Example 63, N-[[1-(4-Chlorobenzoyl)-5-methoxy-2-methyl-1H-indole-3-yl]methyl]-N-hydroxyacetamide], for which the IC50 at Cyclooxygenase (RBL-1 cells) was determined as 15000 nM.
`COc1ccc2c(c1)c(CN(O)C(N)=O)c(C)n2C(=O)c1ccc(Cl)cc1` [Example 68, N-(Aminocarbonyl)-1-(4-chlorobenzoyl)-N-hydroxy-5-methoxy-2-methyl-1H-indole-3-methanamine]: on 5-Lipoxygenase (setting [2]), the inhibition at 16 µM stood at 98%.
For `O=C(O)C(=O)N(O)Cc1ccc2c(c1)Cc1ccccc1-2` [Example 3, (9H-Fluoren-2-ylmethyl)hydroxyamino-oxo-acetic acid], the inhibition at 16 µM on 5-Lipoxygenase (RBL-1, Table 1, read-out: ARBL % inhibition (N)) is less than 40%; on Cyclooxygenase (setting [1]), less than 40%.
With `COc1ccc2c(c1)c(CN(O)C(=O)CCC(=O)O)c(C)n2C(=O)c1ccc(Cl)cc1` [Example 66, 4-[[[1-(4-Chlorobenzoyl)-5-methoxy-2-methyl-1H-indol-3-yl]methyl]hydroxyamino]-4-oxo-butanoic acid], the inhibition at 16 µM at 5-Lipoxygenase (RBL-1, Table 4, read-out: ARBL % inhibition (N @ 16)) is less than 40%.
As for `CC(C)C(=O)N(O)Cc1ccc2c(c1)Cc1ccccc1-2` [Example 5, N-(9H-Fluoren-2-ylmethyl)-N-hydroxy-2-methyl-propanamide], the inhibition at 16 µM on 5-Lipoxygenase (setting [2]) was 99%; at Cyclooxygenase (setting [1]) it was less than 40%.
With `CC(=O)N(O)Cc1ccc2c(c1)Cc1ccccc1-2` [Example 4, N-(9H-Fluoren-2-ylmethyl)-N-hydroxy-acetamide], the inhibition at 16 µM at 5-Lipoxygenase (setting [2]) worked out at 100%. Further, at Cyclooxygenase (RBL-1 cells), the half-inhibitory concentration (IC50) turned out to be 12000 nM.
Consider `CNC(=O)N(O)Cc1ccccc1Nc1cccc(C(F)(F)F)c1` [Example 56], for which the IC50 was 120 nM at 5-Lipoxygenase (RBL-1 cells) and 2200 nM on Cyclooxygenase (RBL-1 cells).
On to `CNC(=S)N(O)C(C)c1ccc2c(c1)Cc1ccccc1-2` (stereo not drawn) [Example 10, N-(1-(9H-Fluoren-2-yl)ethyl)-N-hydroxy-N'-methylthiourea], for which the inhibition at 16 µM was found to be 100% at 5-Lipoxygenase (setting [2]) and 59% at Cyclooxygenase (setting [3]).
Turning to `CCOC(=O)C(=O)N(O)Cc1ccc2c(c1)Cc1ccccc1-2` [Example 2, (9H-Fluoren-2-ylmethyl)hydroxyamino-oxo-acetic acid, ethyl ester], the inhibition at 16 µM was 96% at 5-Lipoxygenase (setting [2]) and less than 40% at Cyclooxygenase (setting [1]).
With `ONCc1ccc2c(c1)Cc1ccccc1-2` [Example 1, N-Hydroxy-9H-fluorene-2-methanamine], the inhibition at 16 µM at 5-Lipoxygenase (setting [2]) came to 97%; on Cyclooxygenase (setting [3]), 76%.
Regarding `CC(=O)N(O)Cc1ccccc1Nc1c(Cl)cccc1Cl` [Example 48, N-[[(2,6-Dichlorophenyl)amino]phenyl]methyl-N-hydroxyacetamide], the half-inhibitory concentration (IC50) on 5-Lipoxygenase (RBL-1 cells) was determined as 1300 nM. In addition, the inhibition at 32 µM at Cyclooxygenase (RBL-1) is less than 40%.
With `CNC(=O)N(O)Cc1c(C)n(C(=O)c2ccc(Cl)cc2)c2ccc(OC)cc12` [Example 69, 1-(4-Chlorobenzoyl)-N-hydroxy-5-methoxy-2-methyl-N-[(methylamino)carbonyl]-1H-indole-3-methanamine], the 50% inhibitory concentration (IC50) on 5-Lipoxygenase (RBL-1 cells) is 2500 nM.
In the case of `CCOC(=O)N(O)Cc1ccccc1Nc1cccc(C(F)(F)F)c1` [Example 57, N-Hydroxy-N-[[2-[[3-(trifluoromethyl)phenyl]amino]phenyl]methyl]carbamic acid, ethyl ester], the inhibition at 16 µM on 5-Lipoxygenase (setting [2]) came out at 100%; at Cyclooxygenase (setting [3]), 91%.
Take `CCNC(=O)N(O)C(C)c1ccc2c(c1)Cc1ccccc1-2` (stereo not drawn) [Example 9, N'-Ethyl-N-(1-(9H-fluoren-2-yl)ethyl)-N-hydroxyurea]: the inhibition at 16 µM on 5-Lipoxygenase (setting [2]) worked out at 100%; on Cyclooxygenase (setting [3]), 49%.
In the same order, the values of `CC(NO)c1ccc2c(c1)Cc1ccccc1-2` (stereo not drawn) [Example 7, N-Hydroxy-α-methyl-9H-fluorene-2-methanamine] are 100% and 89%.
On to `CCOC(=O)CNC(=O)N(O)Cc1c(C)n(C(=O)c2ccc(Cl)cc2)c2ccc(OC)cc12` [Example 73, N-[[[[1-(4-Chlorobenzoyl)-5-methoxy-2-methyl-1H-indol-3-yl]methyl]hydroxyamino]carbonyl]glycine, ethyl ester], for which, on 5-Lipoxygenase (setting [2]), the inhibition at 16 µM turned out to be 100%.
`CC(=O)N(O)Cc1ccccc1Nc1cccc(C)c1C` [Example 47]: the 50% inhibitory concentration (IC50) at 5-Lipoxygenase (RBL-1 cells) was found to be 510 nM; on Cyclooxygenase (RBL-1 cells), 15000 nM.
Take `COC(=O)N(O)Cc1c(C)n(C(=O)c2ccc(Cl)cc2)c2ccc(OC)cc12` [Example 67, [[1-(4-Chlorobenzoyl)-5-methoxy-2-methyl-1H-indol-3-yl]methyl]hydroxycarbamic acid, methyl ester]: the IC50 on Cyclooxygenase (RBL-1 cells) was found to be 16000 nM.
